From patent US6939845B2, “Fragrance precursors” (Givaudan SA, priority 2000, dated 2005)

Test: Stability tests in aqueous buffer solutions
Type: physicochemical
Conditions: for Stability at pH 2.5: aqueous buffer pH 2.5, 24 h at 37° C.; for Stability at pH 7: aqueous buffer pH 7, 24 h at 37° C.; for Stability at pH 9.5: aqueous buffer pH 9.5, 24 h at 37° C.

Row | Compound | Stability at pH 2.5 | Stability at pH 7 | Stability at pH 9.5
1 | C/C=C/CCC1CCCC(OCC(=O)c2cc3c(cc2C)C(C)(C)C(C)CC3(C)C)O1 (stereo not drawn) [compound 5, 1-(3,5,5,6,8,8-Hexamethyl-5,6,7,8-tetrahydro-naphthalen-2-yl)-2-(6-pent-3-enyl-tetrahydro-pyran-2-yloxy)-ethanone] | stable | stable | stable
2 | C/C=C/CCC1CCCC(OCC(=O)c2ccc3ccccc3c2)O1 (stereo not drawn) [compound 6, 1-(Naphtalen-2-yl)-2-(6-pent-3-enyl-tetrahydro-pyran-2-yloxy)-ethanone] | unstable | stable | stable
3 | CCCCCCCC1CCC(OCC(=O)c2cc3c(cc2C)C(C)(C)C(C)CC3(C)C)O1 (stereo not drawn) [compound 2, 2-(5-Heptyl-tetrahydro-furan-2-yloxy)-1-(3,5,5,6,8,8-hexamethyl-5,6,7,8-tetrahydro-naphtalen-2-yl)-ethanone] | stable | stable | stable
4 | Cc1cc2c(cc1C(=O)COC1CCC3(CCC(C)CC3)O1)C(C)(C)CC(C)C2(C)C (stereo not drawn) [compound 1, 1-(3,5,5,6,8,8-Hexamethyl-5,6,7,8-tetrahydro-naphtalen-2-yl)-2-(8-methyl-1-oxa-spiro[4.5]dec-2-yloxy)-ethanone] | stable | stable | stable
5 | CCCCCCCC1CCC(OCC(=O)c2ccc(OC)cc2)O1 (stereo not drawn) [compound 4, 2-(5-Heptyl-tetrahydro-furan-2-yloxy)-1-(4-methoxy-phenyl)-ethanone] | unstable | stable | stable
6 | CCCCCCCC1CCC(OCC(=O)c2ccc3ccccc3c2)O1 (stereo not drawn) [compound 3, 2-(5-Heptyl-tetrahydro-furan-2-yloxy)-1-naphtalen-2-yl-ethanone] | unstable | stable | stable
